Assay type in all cases: biochemical
One test concerns the target PKA (Homo sapiens, UniProt P17612). The test can be described thus: PKA inhibition assay (standard coupled enzyme assay). The conditions noted are these: 50 μM ATP, 80 μM Kemptide, 18 nM PKA, 30° C. Here is the method:
Compounds were screened for their ability to inhibit PKA using a standard coupled enzyme assay (Fox et al., Protein Sci., (1998) 7, 2249). Assays were carried out in a mixture of 100 mM HEPES 7.5, 10 mM MgCl2, 25 mM NaCl, 1 mM DTT and 3% DMSO. Final substrate concentrations in the assay were 50 μM ATP (Sigma Chemicals) and 80 μM peptide (Kemptide, American Peptide, Sunnyvale, Calif.). Assays were carried out at 30° C. and 18 nM PKA. Final concentrations of the components of the coupled enzyme system were 2.5 mM phosphoenolpyruvate, 300 μM NADH, 30 μg/ml pyruvate kinase and 10 μg/ml lactate dehydrogenase.
An assay stock buffer solution was prepared containing all of the reagents listed above, with the exception of ATP, and the test compound of interest. 55 μl of the stock solution was placed in a 96 well plate followed by addition of 2 μl of DMSO stock containing serial dilutions of the test compound (typically starting from a final concentration of 5 μM). The plate was preincubated for 10 minutes at 30° C. and the reaction initiated by addition of 5 μl of ATP (final concentration 50 μM). Initial reaction rates were determined with a Molecular Devices SpectraMax Plus plate reader over a 15 minute time course. IC50 and Ki data were calculated from non-linear regression analysis using the Prism software package (GraphPad Prism version 3.0a for Macintosh, GraphPad Software, San Diego Calif., USA).

Another test concerns the target AKT-3 (Homo sapiens, UniProt Q9Y243). In words: AKT-3 inhibition assay (standard coupled enzyme assay). Conditions: 170 μM ATP, 200 μM peptide, 45 nM AKT, 30° C.
The target in a further test is T1, PDK-1 (Homo sapiens, UniProt O15530).
T1 sequence (O15530 1-556): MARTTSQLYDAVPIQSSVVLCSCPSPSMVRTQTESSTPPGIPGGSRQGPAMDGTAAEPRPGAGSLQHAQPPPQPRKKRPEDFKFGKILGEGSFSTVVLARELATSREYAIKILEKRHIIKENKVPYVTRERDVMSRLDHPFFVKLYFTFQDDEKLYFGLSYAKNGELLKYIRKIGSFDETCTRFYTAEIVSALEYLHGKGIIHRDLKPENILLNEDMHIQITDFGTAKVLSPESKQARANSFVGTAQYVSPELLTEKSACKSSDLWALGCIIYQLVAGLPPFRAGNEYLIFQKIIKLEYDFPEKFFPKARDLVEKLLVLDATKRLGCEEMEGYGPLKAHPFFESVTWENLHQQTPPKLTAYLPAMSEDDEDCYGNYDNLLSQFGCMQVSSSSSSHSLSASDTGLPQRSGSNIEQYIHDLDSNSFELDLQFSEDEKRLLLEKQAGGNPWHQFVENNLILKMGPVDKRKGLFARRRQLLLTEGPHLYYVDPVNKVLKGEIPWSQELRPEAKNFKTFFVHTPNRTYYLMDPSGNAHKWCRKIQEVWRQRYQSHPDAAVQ
The test can be described thus: PDK-1 inhibition assay (radioactive-phosphate incorporation). Conditions: 40 μM ATP, 65 μM PDKtide, 25 nM PDK-1, 30° C.

Consider 44 compounds from patent US7041687B2, “Indazole compounds useful as protein kinase inhibitors” (Vertex Pharmaceuticals Incorporated, priority 2002, dated 2006).

Sequence of AKT-3 (Q9Y243 whole entry): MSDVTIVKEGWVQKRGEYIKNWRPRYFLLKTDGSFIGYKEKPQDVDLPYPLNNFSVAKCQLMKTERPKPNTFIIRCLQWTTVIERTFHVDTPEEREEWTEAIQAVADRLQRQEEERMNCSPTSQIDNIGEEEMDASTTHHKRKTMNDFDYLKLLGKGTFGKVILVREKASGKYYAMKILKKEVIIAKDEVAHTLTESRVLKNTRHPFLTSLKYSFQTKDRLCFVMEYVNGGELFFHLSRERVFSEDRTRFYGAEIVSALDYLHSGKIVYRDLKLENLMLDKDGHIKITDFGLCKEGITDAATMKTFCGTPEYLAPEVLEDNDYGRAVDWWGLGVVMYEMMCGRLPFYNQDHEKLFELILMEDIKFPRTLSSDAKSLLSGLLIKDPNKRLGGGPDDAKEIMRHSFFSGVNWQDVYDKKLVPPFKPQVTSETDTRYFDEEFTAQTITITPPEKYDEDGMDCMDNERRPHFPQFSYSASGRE
Procedure for PDK-1: Compounds were screened for their ability to inhibit PDK-1 using a radioactive-phosphate incorporation assay (Pitt and Lee, J. Biomol. Screen., (1996) 1, 47). Assays were carried out in a mixture of 100 mM HEPES (pH 7.5), 10 mM MgCl2, 25 mM NaCl, 2 mM DTT. Final substrate concentrations in the assay were 40 μM ATP (Sigma Chemicals) and 65 μM peptide (PDKtide, Upstate, Lake Placid, N.Y.). Assays were carried out at 30° C. and 25 nM PDK-1 in the presence of ˜27.5 nCi/μL of [γ-^32P]ATP (Amersham Pharmacia Biotech, Amersham, UK). An assay stock buffer solution was prepared containing all of the reagents listed above, with the exception of ATP, and the test compound of interest. 15 μl of the stock solution was placed in a 96 well plate followed by addition of 1 μl of 0.5 mM DMSO stock containing the test compound (final compound concentration 25 μM, final DMSO concentration 5%). The plate was preincubated for about 10 minutes at 30° C. and the reaction initiated by addition of 4 μl ATP (final concentration 40 μM).
The reaction was stopped after 10 minutes by the addition of 100 μL 100 mM phosphoric acid, 0.01% Tween-20. A phosphocellulose 96 well plate (Millipore, Cat no. MAPHNOB50) was pretreated with 100 μL 100 mM phosphoric acid, 0.01% Tween-20 prior to the addition of the reaction mixture (100 μL). The spots were left to soak for at least 5 minutes, prior to wash steps (4×200 μL 100 mM phosphoric acid, 0.01% Tween-20). Alter drying, 20 μL Optiphase ‘SuperMix’ liquid scintillation cocktail (Perkin Elmer) was added to the well prior to scintillation counting (1450 Microbeta Liquid Scintillation Counter, Wallac).

Take `O=C(Cc1cccc(Cl)c1F)Nc1ccc2[nH]ncc2c1` [Compound I-93]: on PKA, the Ki is below 1000 nM. On to `CCNc1cccc(C(=O)Nc2n[nH]c3ccc(NC(=O)C(CCN)c4ccc(Cl)c(Cl)c4)cc23)c1` (stereo not shown) [Compound I-210], for which the Ki at AKT-3 and at PKA was below 1000 nM each time.

In turn, `NCCC(C(=O)Nc1ccc2[nH]nc(-c3cccc(C(=O)O)c3)c2c1)c1ccccc1` (stereo not shown) [Compound I-246] returned a Ki on PKA below 1000 nM. Still for that read-out and setting: the figure for `O=C(Nc1ccc2[nH]ncc2c1)C(CO)c1ccc(F)c(Cl)c1` (stereo not shown) [Compound I-85] is below 1000 nM. With `NCCNC(C(=O)Nc1ccc2[nH]ncc2c1)c1ccc(Cl)c(Cl)c1` (stereo not shown) [Compound I-69], at PKA, the Ki is below 1000 nM. `NC(C(=O)Nc1ccc2[nH]ncc2c1)c1cccc(Br)c1` (stereo not shown) [Compound I-52]: the Ki on AKT-3 was 10000 to 20000 nM; at PKA, below 1000 nM.

`NCC(C(=O)Nc1ccc2[nH]ncc2c1)c1cccc(Cl)c1` (stereo not shown) [Compound I-97]: the Ki at AKT-3 and at PKA was below 1000 nM throughout.

Turning to `NCCC(C(=O)Nc1ccc2[nH]nc(-c3ccc(C(=O)O)cc3)c2c1)c1ccccc1` (stereo not shown) [Compound I-237], the Ki at PDK-1 and at PKA was below 1000 nM throughout. With `NCCC(C(=O)Nc1ccc2[nH]nc(NC(=O)c3cccc([N+](=O)[O-])c3)c2c1)c1ccc(Cl)c(Cl)c1` (stereo not shown) [Compound I-208], the Ki at AKT-3 and on PKA was below 1000 nM throughout.

As for `NC(C(=O)Nc1ccc2[nH]ncc2c1)c1ccc(F)c(Cl)c1` (stereo not shown) [Compound I-55], the results for the Ki on AKT-3 and at PKA were 1000 to 10000 nM and below 1000 nM, respectively. For `NCC[C@H](C(=O)Nc1ccc2[nH]nc(-c3ccc(C(=O)O)cc3)c2c1)c1ccccc1` [Compound I-263], the Ki at PDK-1 and on PKA was below 1000 nM in each case. As for `Cc1n[nH]c2ccc(NC(=O)[C@H](CCN)c3ccccc3)cc12` [Compound I-1034], the Ki on PDK-1 and on PKA was below 1000 nM throughout. `NC[C@H](C(=O)Nc1ccc2[nH]ncc2c1)c1ccc(Cl)c(Cl)c1` [Compound I-243]: the Ki at AKT-3 and at PKA was below 1000 nM throughout. With `O=C(Nc1ccc2[nH]ncc2c1)C(O)c1ccc(Cl)cc1` (stereo not shown) [Compound I-35], the Ki on AKT-3 is 1000 to 10000 nM; at PKA, below 1000 nM. For `Cc1n[nH]c2ccc(NC(=O)C(CN)c3ccc(Cl)s3)cc12` (stereo not shown) [Compound I-245] the same measures were below 1000 nM and below 1000 nM. For `NC(C(=O)Nc1ccc2[nH]ncc2c1)c1cccc(Cl)c1` (stereo not shown) [Compound I-51] the same measures were 1000 to 10000 nM and below 1000 nM. In the same order, the values of `NCCC(C(=O)Nc1cc(Cl)c2[nH]ncc2c1)c1ccc(Cl)c(Cl)c1` (stereo not shown) [Compound I-143] are below 1000 nM and below 1000 nM. Take `CNc1cccc(C(=O)Nc2n[nH]c3ccc(NC(=O)C(CCN)c4ccc(Cl)c(Cl)c4)cc23)c1` (stereo not shown) [Compound I-209]: the Ki at AKT-3 and at PKA was below 1000 nM each time. On to `O=C(Nc1ccc2[nH]ncc2c1)C(O)c1cc(F)cc(F)c1` (stereo not shown) [Compound I-43], for which the results for the Ki on AKT-3 and at PKA were 1000 to 10000 nM and below 1000 nM, respectively. For `NCCC(C(=O)Nc1cc(Br)c2[nH]ncc2c1)c1ccc(Cl)c(Cl)c1` (stereo not shown) [Compound I-144], the Ki at AKT-3 and on PKA was below 1000 nM in each case. Consider `NCCNC(C(=O)Nc1ccc2[nH]ncc2c1)c1cccc(Cl)c1` (stereo not shown) [Compound I-59, 2-(2-Amino-ethylamino)-2-(3-chloro-phenyl)-N-(1H-indazol-5-yl)-acetamide], for which the Ki at AKT-3 and at PKA was below 1000 nM throughout. As for `O=C(Nc1ccc2[nH]nc(Cl)c2c1)[C@H](O)c1cccc(Cl)c1` [Compound I-78], the values for the Ki at AKT-3 and at PKA were 1000 to 10000 nM and below 1000 nM, respectively. The compound `O=C(CCCc1ccccc1)Nc1ccc2[nH]ncc2c1` [Compound I-92] gave a Ki at PKA of 1000 to 5000 nM. For `C#Cc1cccc(C(=O)Nc2n[nH]c3ccc(NC(=O)C(CCN)c4ccc(Cl)c(Cl)c4)cc23)c1` (stereo not shown) [Compound I-205], the Ki at AKT-3 and at PKA was below 1000 nM in each case. `O=C(Cc1c[nH]c2ccccc12)Nc1ccc2[nH]ncc2c1` [Compound I-24]: at PKA, the Ki is 1000 to 5000 nM.

Take `NC(C(=O)Nc1ccc2[nH]ncc2c1)c1c[nH]c2ccccc12` (stereo not shown) [Compound I-56]: the inhibition constant Ki was 1000 to 10000 nM at AKT-3 and below 1000 nM at PKA. In the same order, the values of `Cc1n[nH]c2ccc(NC(=O)C(CCN)c3cccc(Cl)c3F)cc12` (stereo not shown) [Compound I-116] are below 1000 nM and below 1000 nM. In the case of `NCCC(C(=O)Nc1ccc2[nH]ncc2c1)c1ccc(F)c(C(F)(F)F)c1` (stereo not shown) [Compound I-103], the Ki at AKT-3 and at PKA was below 1000 nM throughout. As to `Cc1n[nH]c2ccc(NC(=O)[C@H](O)c3ccc(F)c(Cl)c3)cc12` [Compound I-77], the Ki at AKT-3 is 1000 to 10000 nM; at PKA it was below 1000 nM. `COC(=O)c1cccc(-c2n[nH]c3ccc(NC(=O)C(CCN)c4ccccc4)cc23)c1` (stereo not shown) [Compound I-244] had a Ki on PKA below 1000 nM. On to `CNCCCNC(C(=O)Nc1ccc2[nH]ncc2c1)c1cccc(Cl)c1` (stereo not shown) [Compound I-67], for which the Ki on AKT-3 and on PKA was below 1000 nM throughout. Turning to `NCCC(C(=O)Nc1ccc2[nH]ncc2c1)c1cccc(C(F)(F)F)c1` (stereo not shown) [Compound I-104], the Ki at AKT-3 and at PKA was below 1000 nM each time.

Turning to `O=C(Nc1ccc2[nH]ncc2c1)[C@H](O)c1cccc(Cl)c1` [Compound I-40], the inhibitory constant (Ki) on AKT-3 is 1000 to 10000 nM; on PKA it was below 1000 nM. On to `O=C(Nc1ccc2[nH]ncc2c1)C(CO)c1ccccc1` (stereo not shown) [Compound I-84], for which the Ki at PKA is 1000 to 5000 nM. `Cc1n[nH]c2ccc(NC(=O)[C@H](O)c3cccc(Cl)c3)cc12` [Compound I-76]: the Ki on AKT-3 is 1000 to 10000 nM; at PKA, below 1000 nM. In the same order, the values of `NCCC(C(=O)Nc1ccc2[nH]ncc2c1)c1cc(C(F)(F)F)cc(Cl)n1` (stereo not shown) [Compound I-149] are below 1000 nM and below 1000 nM. `NCCC(C(=O)Nc1ccc2[nH]nc(NC(=O)C3CCCCC3)c2c1)c1ccccc1` (stereo not shown) [Compound I-1050]: the Ki on AKT-3 was 1000 to 10000 nM; on PDK-1 it was above 3000 nM.

Consider `O=C(Cc1cccc(C(F)(F)F)c1)Nc1ccc2[nH]ncc2c1` [Compound I-2], for which the Ki on AKT-3 is 10000 to 20000 nM; on PKA it was below 1000 nM.

Consider `N[C@@H](C(=O)Nc1ccc2[nH]ncc2c1)c1ccccc1` [Compound I-48], for which the results for the Ki at AKT-3 and on PKA were 1000 to 10000 nM and below 1000 nM, respectively.

Regarding `NCCC(C(=O)Nc1ccc2[nH]nc(-c3cccc(F)c3)c2c1)c1ccc(Cl)c(Cl)c1` (stereo not shown) [Compound I-252], the Ki at AKT-3 and on PKA was below 1000 nM in each case. As to `O=C(CCC(C(=O)O)c1ccccc1)Nc1ccc2[nH]ncc2c1` (stereo not shown) [Compound I-1014], the figures for the Ki on AKT-3 and on PDK-1 were below 1000 nM and above 3000 nM, respectively. In the same order, the values of `Cc1n[nH]c2ccc(NC(=O)C(CCN)c3cccc(CC(C)C)c3)cc12` (stereo not shown) [Compound I-142] are 1000 to 10000 nM and above 3000 nM.

`O=C(Cc1cccc(Cl)c1)Nc1ccc2[nH]ncc2c1` [Compound I-6, 2-(3-Chloro-phenyl)-N-(1H-indazol-5-yl)-acetamide]: the Ki on PKA is 1000 to 5000 nM. Regarding `NCCNC(C(=O)Nc1ccc2[nH]ncc2c1)c1ccc2ccccc2c1` (stereo not shown) [Compound I-73], the Ki at AKT-3 and at PKA was below 1000 nM in each case.
